Results on 23 compounds are retold here after ChEMBL document CHEMBL5634142, “Novel thienopyrimidones targeting hepatic and erythrocytic stages of Plasmodium parasites with increased microsomal stability” (Eur J Med Chem, 2023).

For orientation: microsomal CLint means the capacity of the preparation to metabolise the compound, expressed as a volume cleared per time. The term half-life denotes the time needed for the level to fall by half in the phase considered. By CC50 is commonly meant the concentration at which the toxic effect on the cells reaches its halfway point. Usually EC50 stands for the concentration giving half of the maximal effect. A word on the solubility: it is how much of the substance goes into solution per volume. The IC50 is the midpoint of a concentration-inhibition curve. A word on the chromatographic logD: it is a lipophilicity value derived from retention on a column.

A short description of data set [1]: Stability in CD-1 mouse microsomes assessed as intrinsic clearance measured upto 40 mins in presence of NADP. It is filed as ADME, Microsome.
A short description of data set [2]: Stability in CD-1 mouse microsomes assessed as half-life in presence of NADP. The format is ADME, Microsome.
The nature of data set [3]: Cytotoxicity against Cynomolgous monkey hepatocytes harboring Simian virus assessed as reduction in cell viability administered for 3 hrs followed by replacement with fresh medium containing compound for every 24 hrs by DAPI staining based analysis. It is filed as toxicity, Macaca fascicularis, Hepatocyte. Conditions: cynomolgus monkey.
The next data set has as its system Plasmodium berghei. The data set is described as follows: Antiplasmodial activity against hepatic stage of Plasmodium berghei ANKA sporozoites infected in Cynomolgous monkey hepatocytes harboring Simian virus assessed as reduction in parasite growth administered for 3 hrs followed by replacement with fresh medium containing compound for every 24 hrs by DAPI staining based analysis. It is filed as functional, organism-based. Conditions: Hepatocyte.

Data set [4] is described as follows: Selectivity index, ratio of CC50 for cytotoxicity against human HepG2 cells to EC50 for antiplasmodial activity against erythrocytic stage of chloroquine, pyrimethamine and sulfadoxine resistant Plasmodium falciparum K1 infected in human erythrocytes. The format is toxicity, cell-based. The settings on record: read-out: Ratio CC50/EC50.
Data set [5] is described as follows: Cytotoxicity against human HepG2 cells assessed as reduction in cell viability incubated for 72 hrs by MTT assay. The format is toxicity, cell-based.
In another data set the test system is Plasmodium falciparum. The data set is described as follows: Antiplasmodial activity against erythrocytic stage of chloroquine, pyrimethamine and sulfadoxine resistant Plasmodium falciparum K1 infected in human erythrocytes assessed as reduction in parasite growth incubated for 72 hrs by SYBR green I fluorescence based spectrophotometric analysis. It is filed as functional, organism-based. The settings on record: K1, Erythrocyte.

Data set [6] is described as follows: Solubility of compound in DMSO. It is filed as physicochemical.
In data set [7] the target is Voltage-gated inwardly rectifying potassium channel KCNH2 (Homo sapiens, UniProt Q12809). The data set is described as follows: Inhibition of hERG incubated for 4 hrs by fluorescence polarization assay. It is filed as toxicity. (The hERG channel carries a current that helps repolarise heart muscle cells.)
Data set [8] can be described thus: Effective permeability of compound at pH 5 incubated for 4 hrs by PAMPA-GIT assay. It is filed as ADME. Conditions: read-out: Peff. On the technique in general: In PAMPA a lipid-coated filter parts donor from acceptor wells.
The nature of data set [9]: Effective permeability of compound at pH 7.4 incubated for 4 hrs by PAMPA-GIT assay. It is filed as ADME. Conditions: read-out: Peff.
A short description of data set [10]: Solubility of compound in PBS at 1 mg incubated for 10 mins by HPLC analysis. It is filed as physicochemical.
Data set [11] in a line: Chromatographic hydrophobicity index, log D of the compound at pH 7.4 by HPLC analysis. It is filed as physicochemical. The settings on record: buffer.

A value given as a limit tells only on which side of the number the result lay.

Sequence of Voltage-gated inwardly rectifying potassium channel KCNH2 (Q12809 whole entry): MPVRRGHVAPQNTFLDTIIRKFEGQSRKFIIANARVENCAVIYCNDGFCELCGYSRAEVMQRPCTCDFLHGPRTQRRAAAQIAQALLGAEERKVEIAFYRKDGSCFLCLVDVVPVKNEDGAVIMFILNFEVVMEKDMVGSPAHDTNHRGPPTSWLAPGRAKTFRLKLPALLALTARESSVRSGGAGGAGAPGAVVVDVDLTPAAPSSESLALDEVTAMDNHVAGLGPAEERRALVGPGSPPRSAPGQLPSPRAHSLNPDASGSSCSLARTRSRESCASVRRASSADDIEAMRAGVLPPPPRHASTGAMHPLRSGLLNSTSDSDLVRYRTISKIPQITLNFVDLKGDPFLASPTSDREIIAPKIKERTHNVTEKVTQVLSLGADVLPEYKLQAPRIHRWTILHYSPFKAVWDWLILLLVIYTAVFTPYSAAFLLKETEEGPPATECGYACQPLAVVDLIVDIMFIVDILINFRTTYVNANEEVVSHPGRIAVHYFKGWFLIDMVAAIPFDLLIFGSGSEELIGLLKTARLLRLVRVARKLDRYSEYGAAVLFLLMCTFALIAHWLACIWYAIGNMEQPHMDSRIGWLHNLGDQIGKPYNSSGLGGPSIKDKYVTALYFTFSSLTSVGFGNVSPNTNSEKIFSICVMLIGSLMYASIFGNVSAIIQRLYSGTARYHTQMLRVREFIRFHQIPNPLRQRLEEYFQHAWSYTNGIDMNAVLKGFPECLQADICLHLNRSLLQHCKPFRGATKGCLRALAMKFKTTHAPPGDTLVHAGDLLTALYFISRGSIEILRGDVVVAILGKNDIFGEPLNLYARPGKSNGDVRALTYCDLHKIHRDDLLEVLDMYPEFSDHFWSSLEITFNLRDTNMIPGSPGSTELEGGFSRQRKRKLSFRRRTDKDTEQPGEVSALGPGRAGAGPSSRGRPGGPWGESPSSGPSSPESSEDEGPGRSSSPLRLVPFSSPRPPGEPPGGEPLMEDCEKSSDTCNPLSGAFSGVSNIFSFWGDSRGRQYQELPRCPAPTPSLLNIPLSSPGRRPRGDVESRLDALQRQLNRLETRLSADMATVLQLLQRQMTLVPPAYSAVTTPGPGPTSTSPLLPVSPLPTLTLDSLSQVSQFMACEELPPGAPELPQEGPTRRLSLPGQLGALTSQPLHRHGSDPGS

With `Cc1ccc(-c2cc3nc(NC(C)C)[nH]c(=O)c3s2)cc1`, the microsomal CLint in data set [1] stood at 214 µL/min/mg. Moreover, the half-life in data set [2] is 11 min. In addition, the CC50 at 3 h in [3] was over 200 µM. Also, the EC50 in the data set with Plasmodium berghei came out at 55.6 µM.

In the case of `Cc1ccc(-c2cc3nc(N)n(CCCN(C)C)c(=O)c3s2)cc1`, the selectivity ratio in [4] is 0.42. For the same compound, the CC50 at 72 h in [5] was 4.1 µM. In the data set with Plasmodium falciparum, the concentration for a half-maximal effect (EC50) was 9.8 µM.

Regarding `Cc1ccc(-c2cc3nc(NC4CC4)[nH]c(=O)c3s2)cc1`, the intrinsic clearance (microsomal CLint) in [1] is 136 µL/min/mg. The half-life in data set [2] turned out to be 15 min. Besides, in data set [3], the CC50 at 3 h is over 100 µM. The selectivity ratio in data set [4] worked out at 4.4. In addition, the EC50 with Plasmodium berghei turned out to be 5.5 µM; with Plasmodium falciparum it was 0.9 µM. Moreover, the CC50 at 72 h in data set [5] worked out at 4 µM.

`Cc1ccc(-c2cc3nc(N4CCN(C)CC4)[nH]c(=O)c3s2)cc1`: the selectivity ratio in data set [4] is under 0.3. For the same compound, the cytotoxic concentration (CC50) at 72 h in data set [5] turned out to be 8.7 µM. In addition, the EC50 in the data set with Plasmodium falciparum is over 25 µM.

With `Cc1ccc(-c2cc3nc(N4CCCCC4)[nH]c(=O)c3s2)cc1`, the CC50 at 72 h in [5] was over 3.1 µM. Besides, in the data set with Plasmodium falciparum, the EC50 was over 25 µM.

For `Cc1ccc(-c2cc3nc(N4CCC4)[nH]c(=O)c3s2)cc1`, in data set [6], the solubility entry was “Insoluble”.

On to `Cc1ccc(-c2cc3nc(N[C@H]4CCNC4)[nH]c(=O)c3s2)cc1`, for which the selectivity ratio in [4] was under 0.4. In [5], the CC50 at 72 h is 13.2 µM. Further, the EC50 with Plasmodium falciparum is over 31.2 µM.

For `[2H]C([2H])([2H])C(Nc1nc2cc(-c3ccc(C)cc3)sc2c(=O)[nH]1)C([2H])([2H])[2H]`, the microsomal CLint in data set [1] was determined as 214 µL/min/mg. In addition, in [2], the half-life amounted to 11 min. Besides, the CC50 at 3 h in data set [3] is over 100 µM. For the same compound, the selectivity ratio in data set [4] is over 50. In addition, the values for the concentration for a half-maximal effect (EC50) with Plasmodium berghei and with Plasmodium falciparum were 15.9 µM and 0.2 µM, respectively. Further, in [5], the 50% cytotoxic concentration (CC50) at 72 h was over 10 µM.

As to `CCn1c(NC(C)(C)C)nc2cc(-c3ccc(C)cc3)sc2c1=O`, the selectivity ratio in [4] amounted to 1.4. Moreover, the CC50 at 72 h in [5] came to 5.8 µM. The EC50 in the data set with Plasmodium falciparum is over 12.5 µM.

As to `Cc1ccc(-c2cc3nc(NC(C)(C)C)n(C(C)C)c(=O)c3s2)cc1`, in [4], the selectivity ratio was over 0.9. Besides, the CC50 at 72 h in [5] is over 3.9 µM. In the data set on Plasmodium falciparum, the EC50 amounted to 4.2 µM.

With `Cc1ccc(-c2cc3nc(N4CCCC4)[nH]c(=O)c3s2)cc1`, in data set [3], the CC50 at 3 h was over 200 µM. The selectivity ratio in data set [4] is over 2.1. Also, the values for the 50% effective concentration (EC50) in the data set on Plasmodium berghei and in the data set with Plasmodium falciparum were over 100 µM and 1.4 µM, respectively. Further, in [5], the half-maximal cytotoxic concentration (CC50) at 72 h is over 3.1 µM.

For `Cc1ccc(-c2cc3nc(NC4CCCCC4)[nH]c(=O)c3s2)cc1`, the CC50 at 72 h in [5] is over 12.5 µM. In the data set with Plasmodium falciparum, the EC50 was over 12.5 µM.

Take `Cc1ccc(-c2cc3nc(NC(C)(C)C(F)(F)F)[nH]c(=O)c3s2)cc1`: the selectivity ratio in data set [4] was over 10. In data set [5], the CC50 at 72 h was found to be 23.9 µM. Besides, the concentration giving a half-maximal response (EC50) in the data set on Plasmodium falciparum was over 10 µM.

For `Cc1ccc(-c2cc3nc(NC4CCCC4)[nH]c(=O)c3s2)cc1`, the intrinsic clearance (microsomal CLint) in [1] amounted to 58 µL/min/mg. In addition, the half-life in data set [2] came to 38 min. Besides, in data set [3], the CC50 at 3 h was over 100 µM. Further, the selectivity ratio in data set [4] was over 5.6. Also, the EC50 with Plasmodium berghei stood at 10.5 µM; with Plasmodium falciparum, 1.4 µM. Moreover, in [5], the CC50 at 72 h is over 7.8 µM.

For `Cc1ccc(-c2cc3nc(N4CCOCC4)[nH]c(=O)c3s2)cc1`, the selectivity ratio in data set [4] was under 0.4. Moreover, the CC50 at 72 h in data set [5] was 3.6 µM. For the same compound, the concentration giving a half-maximal response (EC50) in the data set on Plasmodium falciparum is over 10 µM.

For the compound `[2H]C([2H])([2H])C(Nc1nc2cc(-c3ccc(C)cc3)sc2c(=O)[nH]1)(C([2H])([2H])[2H])C([2H])([2H])[2H]`, in data set [1], the microsomal CLint was 209 µL/min/mg. The half-life in data set [2] is 8.5 min. Besides, the 50% cytotoxic concentration (CC50) at 3 h in [3] was over 100 µM. In data set [4], the selectivity ratio worked out at 149. Besides, the EC50 is 13.7 µM in the data set with Plasmodium berghei and 0.1 µM in the data set on Plasmodium falciparum. Also, the half-maximal cytotoxic concentration (CC50) at 72 h in [5] is 17.9 µM.

Take `Cc1ccc(-c2cc3nc(NC(C)(C)C)n(-c4ccccc4)c(=O)c3s2)cc1`: the cytotoxic concentration (CC50) at 72 h in data set [5] is over 3.1 µM. In addition, the concentration giving a half-maximal response (EC50) with Plasmodium falciparum was over 12.5 µM.

`Cc1ccc(-c2cc3nc(NC4CCC4)[nH]c(=O)c3s2)cc1`: the microsomal CLint in data set [1] was 78 µL/min/mg. The half-life in data set [2] turned out to be 29 min. Further, the half-maximal cytotoxic concentration (CC50) at 3 h in data set [3] was over 100 µM. Besides, the selectivity ratio in [4] was 12.7. Further, the results for the EC50 with Plasmodium berghei and with Plasmodium falciparum were 11.2 µM and 1.1 µM, respectively. Moreover, the half-maximal cytotoxic concentration (CC50) at 72 h in data set [5] came to 14 µM.

For `Cc1ccc(-c2cc3nc(N)n(C)c(=O)c3s2)cc1`, the CC50 at 72 h in data set [5] was over 6.2 µM. The EC50 with Plasmodium falciparum is over 25 µM.

In [7], `Cc1ccc(-c2cc3nc(C(C)(C)C)[nH]c(=O)c3s2)cc1` displayed an IC50 of over 100 µM.

Take `Cc1ccc(-c2cc3nc(NC4CCC4)[nH]c(=O)c3s2)cc1.Cl`: the Papp at 4 h in data set [8] was 18.1 ×10⁻⁶ cm/s; in [9], 4.36 ×10⁻⁶ cm/s. Further, the solubility at 10 min in data set [10] stood at 1.4 µM. In [7], the IC50 is over 100 µM. For the same compound, the chromatographic logD in data set [11] is 3.16.

On to `C[C@H]1c2cccc(O)c2C(=O)C2=C(O)[C@]3(O)C(=O)C(C(N)=O)=C(O)[C@@H](N(C)C)[C@@H]3[C@@H](O)[C@@H]21` [DOXYCYCLINE ANHYDROUS], for which, in [4], the selectivity ratio was 4.

On to `COc1cc(NC(C)CCCN)c2ncccc2c1` (stereo not drawn) [PRIMAQUINE], for which the CC50 at 3 h in data set [3] is over 50 µM. The EC50 in the data set on Plasmodium berghei was 7.26 µM.
